Target: T1, serotonin 5HT2c receptor (Homo sapiens, UniProt P28335)
T1 construct: Novascreen (contract screen)
T1 sequence (P28335 33-458): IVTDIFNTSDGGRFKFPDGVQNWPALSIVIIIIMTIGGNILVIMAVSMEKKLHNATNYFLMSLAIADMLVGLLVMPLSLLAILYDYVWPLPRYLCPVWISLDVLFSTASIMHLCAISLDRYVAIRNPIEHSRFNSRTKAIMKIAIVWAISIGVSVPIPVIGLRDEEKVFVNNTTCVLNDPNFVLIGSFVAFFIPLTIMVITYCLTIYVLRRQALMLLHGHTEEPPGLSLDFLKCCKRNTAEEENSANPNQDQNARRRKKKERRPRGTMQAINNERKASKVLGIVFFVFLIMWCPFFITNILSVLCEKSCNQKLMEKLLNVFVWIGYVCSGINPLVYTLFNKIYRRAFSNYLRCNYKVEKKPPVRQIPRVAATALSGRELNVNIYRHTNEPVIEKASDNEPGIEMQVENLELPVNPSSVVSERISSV
Experiment: Novascreen receptor affinity screen (competition with reference ligand), 5HT2c
Format: binding
Settings: 1 μM Captodiamine competing with a reference ligand; read-out: percent target inhibition, serotonin 5HT2c receptor
Procedure: The Structure (FIG. 9A), receptor affinity (FIG. 9B), pharmacokinetics (FIG. 9C) and growth factor modulation (FIG. 9D) of Captodiamine are provided. Analysis of receptor affinities was performed by Novascreen™ and those displacing >20% of the natural ligand are indicated by the filled boxes. Blood levels of Captodiamine were determined by GC mass spectroscopy. In separate samples taken from a cannulated jugular at increasing time intervals following a single intraperitoneal injection of tha drug (5 mg/kg). Growth factor analysis was performed using tissue homogenates and ELISA assays specific for each growth factor (Promega). Values were analysed using a Student t-test and those with a p value<0.05 were accepted as significant and are indicated with an asterisk.
The higher the target inhibition value, the greater the affinity Captodiamine has for this particular receptor as it displaces a greater proportion of the reference ligand. This assay is an automated high throughput assay performed on cell lines that express only one type of receptor and was carried out by Novascreen (www.novascreen.com). Receptor affinity is a good starting point for determining the mechanism of action for a particular compound.

CCCCSc1ccc(C(SCCN(C)C)c2ccccc2)cc1 (stereo not shown) [Captodiamine, 2-[(4-butylsulfanylphenyl)-phenyl-methyl]sulfanyl-N,N-dimethyl-ethanamin]
inhibition at 1 µM: > 80%

Reference: patent publication US8461389B2, “Psycho-pharmaceuticals” (University College Dublin, National University of Ireland, …, priority 2008, dated 2013)
